Laboratory results published in patent EP4786459A1, “BENZENE RING-CONTAINING COMPOUND HAVING ANALGESIC EFFECT, PREPARATION METHOD THEREFOR, AND USE THEREOF” (West China Hospital, Sichuan University, priority 2023, dated 2025).

Legend:
[1] = Loss of tail withdrawal reflex (LOTWR) in rats, single intravenous injection, dose escalation: potent analgesic effect and severe adverse reactions; format: in vivo, SD rats; conditions: rat, in vivo, single intravenous injection, minimum dose resulting in serious adverse reactions / minimum effective dose, class symbol, read-out: The safety therapeutic index
Experimental: (§1) Using the loss of tail withdrawal reflex (LOTWR) in rats as an indicator, the potent analgesic effect of the compounds according to the present invention was evaluated.
(§2) 1.1 Experimental animals: Adult male SD rats weighing between 220-300 g were selected for the experiment. The rats were housed in sawdust-bedded cages with a temperature of 25±1°C, humidity ranging from 40% to 60%, and a 12-hour light/12-hour dark cycle. Each cage contained no more than 5 rats, with free access to water and food.
(§3) • (1) The compound of the present invention, along with the positive control drug remifentanil and the negative control (vehicle), were administered in fixed volumes. A dose escalation approach was employed to determine the minimum effective dose at which the compound of the present invention produces potent analgesic effects, as well as the minimum dose at which severe adverse reactions first appear. • (2) LOTWR lasting for 30 seconds was used as the criterion for generating potent analgesic effects. During the experiment, drugs were administered via the tail vein of rats, with a dosage volume of 0.6 mL per rat and a dosage rate of 0.02 mL/s. Subsequently, an alligator clip was applied at a distance of 1 cm from the base of the rat's tail, clamping once longitudinally and once transversely before being left in place. Meanwhile, the distal end of the alligator clip was continuously oscillated (30 times/min) to continuously generate stimulation. […] When all results were "no LOTWR" after 10 minutes of testing (5 trials), the test was stopped and recorded as "ineffective." • (3) All compounds would undergo a dose escalation for efficacy evaluation, starting from 1 mg/kg (due to the high potency of remifentanil, the lowest dose was set at 1 µg/kg), followed by 5 mg/kg, 10 mg/kg, 20 mg/kg, and so on (increasing by 20 mg/kg increments after 20 mg/kg). The dose escalation would be stopped when rats show signs of death, and the lowest effective dose and the lowest dose at which severe adverse reactions occur would be recorded throughout the process. In this study, severe adverse reactions are defined as apnea, generalized tonic rigidity, convulsions, opisthotonus, seizures, etc.
(§4) 1.3 Evaluation indicators: the minimum effective dose; the minimum dose resulting in serious adverse reactions; the safety therapeutic index = "the minimum dose resulting in serious adverse reactions" / "the minimum effective dose".

rats = test: as above; format: in vivo, SD rats; conditions: Rattus norvegicus, single intravenous injection (tail vein), LOTWR lasting for 30 seconds as criterion, class symbol, read-out: The minimum effective dose
Experimental: as §1, §2, §3, §4

Structure (SMILES) | selectivity ratio [1] | minimal effective dose (rats) [mg/kg]
Cc1ccc(CNC(=O)NCc2ccsc2)c(N(C)C)c1 [Example 1] | 2 to 4 | ≤ 10
Cc1ccc(CNC(=S)NCc2ccsc2)c(N(C)C)c1 [Example 2, 1-(2-(dimethylamino)-4-methylbenzyl)-3-(thiophene-3-ylmethyl)thiourea] | ≤ 2 | ≤ 10
Cc1ccc(CNC(=N)NCc2ccsc2)c(N(C)C)c1 [Example 3, 1-(2-(dimethylamino)-4-methylbenzyl)-3-(thiophen-3-ylmethyl)guanidine] | 2 to 4 | ≤ 10
Cc1ccc(CNC(=NC#N)NCc2ccsc2)c(N(C)C)c1 [Example 4] | ≤ 2 | > 30
Cc1ccc(CNC(=O)OCc2ccsc2)c(N(C)C)c1 [Example 5] | 2 to 4 | ≤ 10
Cc1ccc(COC(=O)NCc2ccsc2)c(N(C)C)c1 [Example 6, 2-(dimethylamino)-4-methylbenzyl(thiophene-3-ylmethyl)carbamate] | 2 to 4 | ≤ 10
Cc1ccc(CNC(=C[N+](=O)[O-])NCc2ccsc2)c(N(C)C)c1 [Example 7] | ≤ 2 | > 30
Cc1ccc(CNc2c(NCc3ccsc3)c(=O)c2=O)c(N(C)C)c1 [Example 8] | ≤ 2 | > 30
Cc1ccc(CNC(=O)NCc2ccoc2)c(N(C)C)c1 [Example 9] | ≤ 2 | 20 to 30
Cc1ccc(CNC(=O)NCc2cccs2)c(N(C)C)c1 [Example 10] | > 4 | ≤ 10
Cc1ccc(CCNC(=O)NCc2ccsc2)c(N(C)C)c1 [Example 11, 1-(2-(dimethylamino)-4-methylphenethyl)-3-(thiophene-3-ylmethyl)urea] | 2 to 4 | ≤ 10
Cc1ccc(CNC(=O)NCCc2ccsc2)c(N(C)C)c1 [Example 12, 1-(2-(dimethylamino)-4-methylbenzyl)-3-(2-(thiophene-3-yl)ethyl)urea] | ≤ 2 | ≤ 10
Cc1ccc(NC(=O)Nc2ccsc2)c(N(C)C)c1 [Example 13] | > 4 | ≤ 10
Cc1ccc(NC(=N)Nc2ccsc2)c(N(C)C)c1 [Example 14] | ≤ 2 | ≤ 10
CN(C)c1cc(O)ccc1CNC(=O)NCc1ccsc1 [Example 15] | > 4 | 10 to 20
[2H]C([2H])([2H])N(c1cc(C)ccc1CNC(=O)NCc1ccsc1)C([2H])([2H])[2H] [Example 17] | 2 to 4 | ≤ 10
Cc1ccc(CNC(=O)NCc2ccsc2)cc1N(C)C [Example 18] | 2 to 4 | ≤ 10
Cc1ccc(CNC(=S)NCc2ccsc2)cc1N(C)C [Example 19, 1-(3-(dimethylamino)-4-methylbenzyl)-3-(thiophene-3-ylmethyl)thiourea] | ≤ 2 | ≤ 10
Cc1ccc(CNC(=N)NCc2ccsc2)cc1N(C)C [Example 20, 1-(3-(dimethylamino)-4-methylbenzyl)-3-(thiophen-3-ylmethyl)guanidine] | ≤ 2 | ≤ 10
Cc1ccc(NC(=N)Nc2ccsc2)cc1N(C)C [Example 21] | > 4 | ≤ 10

Structure (SMILES) | selectivity ratio [1] | minimal effective dose (rats) [mg/kg]
COC(=O)C(C#N)=C(NCc1ccsc1)NCc1ccc(C)cc1N(C)C [Example 22] | ≤ 2 | > 30
Cc1ccc(CNC(=O)NCc2ccco2)c(N(C)C)c1 [Example 23] | ≤ 2 | > 30
CN(C)c1ccccc1CNC(=O)NCc1ccsc1 [Example 24] | 2 to 4 | 10 to 20
Cc1ccc(CNC(=N)NCc2cccs2)c(N(C)C)c1 [Example 26] | ≤ 2 | > 30
CN(C)c1ccccc1CNC(=O)NCc1cccs1 [Example 27] | > 4 | ≤ 10
CN(C)c1ccccc1CNC(=S)NCc1cccs1 [Example 28] | ≤ 2 | > 30
CN(C)c1cc(C(F)(F)F)ccc1CNC(=O)NCc1cccs1 [Example 29] | ≤ 2 | ≤ 10
CN(C)c1cccc(CNC(=O)NCc2ccsc2)c1 [Example 30] | ≤ 2 | 20 to 30
Cc1ccc(CNC(=O)NCc2cccs2)cc1N(C)C [Example 31] | > 4 | ≤ 10
Cc1ccc(CNC(=S)NCc2cccs2)cc1N(C)C [Example 32] | > 4 | ≤ 10
Cc1ccc(CNC(=N)NCc2cccs2)cc1N(C)C [Example 33] | ≤ 2 | ≤ 10
CN(C)c1cccc(CNC(=O)NCc2cccs2)c1 [Example 34] | ≤ 2 | 20 to 30
Cc1ccc(CNC(=O)NCc2ccoc2)cc1N(C)C [Example 35] | 2 to 4 | 20 to 30
Cc1ccc(CNC(=O)NCc2ccco2)cc1N(C)C [Example 36] | > 4 | ≤ 10
Cc1ccc(CNC(=O)NCc2ccns2)c(N(C)C)c1 [Example 37] | > 4 | ≤ 10
Cc1ccc(CNC(=O)NCc2cncs2)c(N(C)C)c1 [Example 38] | 2 to 4 | 10 to 20
Cc1ccc(CNC(=O)NCc2nccs2)c(N(C)C)c1 [Example 39] | 2 to 4 | 10 to 20
CN(C)c1ccccc1CNC(=O)NCc1ccns1 [Example 41] | ≤ 2 | > 30
Cc1ccc(CNC(=O)NCc2ccno2)c(N(C)C)c1 [Example 42] | ≤ 2 | > 30
Cc1ccc(CNC(=O)NCc2ncc[nH]2)c(N(C)C)c1 [Example 43] | > 4 | 10 to 20

Structure (SMILES) | selectivity ratio [1] | minimal effective dose (rats) [mg/kg]
COC(=O)CCc1ccc(CNC(=O)NCc2ccsc2)c(N(C)C)c1 [Example 44] | ≤ 2 | 10 to 20
CNC(=O)CCc1ccc(CNC(=O)NCc2ccsc2)c(N(C)C)c1 [Example 45] | 2 to 4 | > 30
Cc1ccc(CNC(=O)NCc2nnn[nH]2)c(N(C)C)c1 [Example 46] | ≤ 2 | > 30
COc1c(N(C)C)cc(CNC(=O)NCc2ccsc2)cc1N(C)C [Example 47] | ≤ 2 | ≤ 10
CN(C)c1ccc(Oc2ccccc2)cc1CNC(=O)NCc1ccsc1 [Example 48] | 2 to 4 | ≤ 10
Cc1ccc(N(C)C)c(CNC(=O)NCc2ccns2)c1 [Example 49] | 2 to 4 | > 30
COC(=O)c1ccc(CNC(=O)NCc2ccc(C)cc2N(C)C)s1 [Example 50] | ≤ 2 | 20 to 30
CCCCc1cc(CNC(=O)NCc2ccc(C)cc2N(C)C)cs1 [Example 51] | 2 to 4 | ≤ 10
CCCCc1cscc1CNC(=O)NCc1ccc(C)cc1N(C)C [Example 52] | 2 to 4 | ≤ 10
CCCCc1ccc(CNC(=O)NCc2ccsc2)c(N(C)C)c1 [Example 53] | ≤ 2 | ≤ 10
Cc1ccc(CNC(=O)NCc2ccsc2)c(N2CCCCC2)c1 [Example 54] | ≤ 2 | ≤ 10
CCN(CC)c1cc(C)ccc1CNC(=O)NCc1ccsc1 [Example 55] | ≤ 2 | ≤ 10
CN(C)c1cc(CCNC(=O)C2COC2)ccc1CNC(=O)NCc1ccsc1 [Example 56] | ≤ 2 | ≤ 10
CNc1cc(C)ccc1CNC(=O)NCc1ccsc1 [Example 57] | ≤ 2 | 10 to 20
Cc1ccc(CNC(=O)NCc2ncc[nH]2)cc1N(C)C [Example 58] | ≤ 2 | > 30
Cc1ccc(NC(=O)NCc2ncc[nH]2)c(N(C)C)c1 [Example 59] | 2 to 4 | 10 to 20
Cc1ccc(NC(=O)NCc2ccns2)c(N(C)C)c1 [Example 60] | ≤ 2 | 10 to 20
Cc1ccc(CNC(=O)Nc2ccns2)c(N(C)C)c1 [Example 61] | ≤ 2 | ≤ 10
Cc1ccc(CNC(=O)NCc2ccccc2)c(N(C)C)c1 [Example 62] | 2 to 4 | 10 to 20
